Our source for the half-life in blood values is patent publication US9169355B2, “Biocompatible agent for dispersing nanoparticles into an aqueous medium using mussel adhesive protein-mimetic polymer” (Hanwha Chemical Corporation, priority 2010, dated 2015).

For the data set the following is noted: mouse, in vivo.

Regarding Fe3O4, the half-life in blood result was “prolonged”.
